Entries after “also recorded” stand apart in the source; their conditions may differ.
What was measured:
[1] = Solubility in DMSO observed during sample preparation; format: physicochemical; conditions: 30% DMSO; 40% DMSO used instead
Protocol: First, 400 mg of sample was dissolved in 1 mL of DMSO to prepare 400 mg/mL sample solution. Then 0.5 mL of this 400 mg/mL sample solution was diluted 2-fold to prepare 200 mg/mL sample solution. In the same manner, sample solutions of 100 mg/mL, 50.0 mg/mL, and 25.0 mg/mL were prepared. In addition, 300 mg/mL sample solution was prepared. Thereafter, 0.2 mL of these sample solutions each was mixed with 19.8 mL of BHI (Brain Heart Infusion Agar, Becton Dickinson, MD) medium, thereby preparing agar plates having the sample concentration of 4.0 mg/mL, 3.0 mg/mL, 2.0 mg/mL, 1.0 mg/mL, 0.5 mg/mL, and 0.25 mg/mL in dishes. […] Sterilized water was used for dissolving catechin, because catechin was insoluble in DMSO.
First, 4 mg of 5,7,4′-trihydroxy-3′,5′-dimethoxyflavone sample was dissolved in 200 μL to prepare 20 mg/mL sample solution. To 100 μL of this 20 mg/mL sample solution, 100 μL of sterilized water was added to prepare 200 μL of 10 mg/mL sample solution. To the solution, 60 μL DMSO and 140 μL of sterilized water were added to prepare 400 μL of 5.0 mg/mL sample solution. DMSO was used in the concentration of 40%, because the sample precipitated from 30% DMSO. To 350 μL of 5.0 mg/mL sample solution, 140 μL DMSO and 210 μL of sterilized water were added to prepare 700 μL of 2.5 mg/mL sample solution. In the same manner, 1.25 mg/mL and 0.625 mg/mL sample solutions were prepared. […]

[2] = system: Salmonella sp.; test: Paper disk method microbicidal test; format: cell-based; conditions: for size of the inhibition ring: 0 mg/mL control: 12.35 (flavone, 40% DMSO), — (catechin)
Protocol: (§1) As microbicidal test method for 5,7,4′-trihydroxy-3′,5′-dimethoxyflavone, the paper disk method was employed, by which method the microbicidal activity can be judged even in cases where a solvent has some influences.
(§2) In paper disk method, sample solutions having various sample concentration are prepared, and the sample solution was absorbed in a special paper disk, followed by drying the paper disk. Onto the plate which is made by mixing a prepared bacterial suspension with agar medium, the paper disks are placed. If the sample has a microbicidal activity, the inhibition ring which indicates the inhibition of bacterial growth is formed such that the center of the ring is coincident with the paper disk. The degree of a microbicidal activity is judged based on the size of the inhibition ring.
(§3) First, 4 mg of 5,7,4′-trihydroxy-3′,5′-dimethoxyflavone sample was dissolved in 200 μL to prepare 20 mg/mL sample solution. To 100 μL of this 20 mg/mL sample solution, 100 μL of sterilized water was added to prepare 200 μL of 10 mg/mL sample solution. To the solution, 60 μL DMSO and 140 μL of sterilized water were added to prepare 400 μL of 5.0 mg/mL sample solution. DMSO was used in the concentration of 40%, because the sample precipitated from 30% DMSO. To 350 μL of 5.0 mg/mL sample solution, 140 μL DMSO and 210 μL of sterilized water were added to prepare 700 μL of 2.5 mg/mL sample solution. In the same manner, 1.25 mg/mL and 0.625 mg/mL sample solutions were prepared. As a control, a solution containing 40% DMSO and 60% sterilized water was prepared. […] In a paper disk (8.12 mm diameter), 70 μL of these solutions each was absorbed, and the paper disks were dried for a day.
(§4) As test bacteria, Staphylococcus aureus, Salmonella sp., Yersinia enterocolitica, Pseudomonas aeruginosa, and Candida sp. were used. These bacteria were mixed with 2 mL of sterilized water to prepare bacterial suspensions having turbidity 1 (10^8/mL). The plate agar was made by mixing 0.2 mL of the bacterial suspension with 19.8 mL of BHI medium. The dried paper disk was placed onto the plate agar, and the plate was incubated in an incubator at 37° C., followed by assessing the activity. In the Table, (-) represents that no microbicidal activity was observed.

[3] = system: Candida sp.; test: Paper disk method microbicidal test; format: cell-based; conditions: 0 mg/mL control: 11.86 (flavone, 40% DMSO), — (catechin)
Protocol: as §1, §2, §3, §4

[4] = system: Pseudomonas aeruginosa; test: Paper disk method microbicidal test; format: cell-based; conditions: for size of the inhibition ring: 0 mg/mL control: 12.33 (flavone, 40% DMSO), — (catechin)
Protocol: as §1, §2, §3, §4

[5] = system: Yersinia enterocolitica; test: Paper disk method microbicidal test; format: cell-based; conditions: 0 mg/mL control: 15.65 (flavone, 40% DMSO), — (catechin)
Protocol: as §1, §2, §3, §4

[6] = 0.625 mg/mL solution on 8.12 mm paper disk
[7] = 1.25 mg/mL solution on 8.12 mm paper disk
[8] = 2.5 mg/mL solution on 8.12 mm paper disk

In the case of `COc1cc(-c2cc(=O)c3c(O)cc(O)cc3o2)cc(OC)c1O` [5,7,4′-Trihydroxy-3′,5′-Dimethoxyflavone, 5,7,4′-trihydroxy-3′,5′-dimethoxyflavone], the “solubility in aqueous DMSO” value [1] is reported as “precipitated”, the “size of the inhibition ring” value [2, 6] is reported as 12.35 and the “size of the inhibition ring” value [2, 7] is reported as 13.82. For the same compound, the “size of the inhibition ring” value [2, 8] was 16.65, the “microbicidal activity (in words)” value ([2]; paper disk method) was “had a microbicidal activity; also recorded: very strong even compared to catechin” and the “size of the inhibition ring” value [3, 6] was 11.86. The “size of the inhibition ring” value [3, 7] was 12.30, the “size of the inhibition ring” value [3, 8] was 11.90 and the “size of the inhibition ring” value [4, 6] was 15.46. The “size of the inhibition ring” value [4, 7] was 18.54, the “size of the inhibition ring” value [4, 8] was 19.20 and the “microbicidal activity (in words)” value ([4]; paper disk method) was “had a microbicidal activity; also recorded: very strong even compared to catechin”. The “size of the inhibition ring” value [5, 6] was 15.67, the “size of the inhibition ring” value [5, 7] was 15.76 and the “size of the inhibition ring” value [5, 8] was 15.76.

Source: patent publication US20100190846A1, “MICROBICIDAL AGENT AND MICROBICIDAL COMPOSITION” (priority 2006, published 2010)
